# Measurements published in patent US5731353A, “Stilbene derivatives and pharmaceutical compositions containing them” (Ajinomoto Co., Inc., priority 1993, dated 1998).
# Like-named read-outs stand apart in the source and are kept apart here.
# Legend:
# [1] = tested on: Mouse P388 leukemia cells; assay: Cytotoxicity Testing: 50% growth-inhibiting concentration, MTT method; assay type: cell-based; conditions: read-out: in vitro IC50 (50% growth-inhibiting concentration)
# Protocol: Mouse P388 leukemia cells were used as cancer cells for this test. The cancer cells were incubated in RPMI-1640 medium containing 5 μM 2-mercaptoethanol and 10% fetal calf serum. More specifically, the cancer cells were seeded in a 96-well microplate in an amount of 1×10^4cell/50 μl/well, 25 μl/well of an aqueous solution of the test compound mentioned below (4 μg/ml) were added to each well, and the cells were incubated therein for 2 days at 37° C. After the incubation, the number of the living cells was counted using the MTT method and a dose-reaction curve was formed from the counted data. Based on the curve, the 50% growth-inhibiting concentration (IC50) of the test compound was calculated. As a comparative compound, Combretastatin A-4 was used.
# Colon 26 = assay: Evaluation of Antitumor Activity: Colon 26 inoculated sc into CD2F1 mice; assay type: in vivo; conditions: tumor volume 21 days after the day of administration
# Protocol: Colon 26 was inoculated sc into CD2F1 mice. After a week, the size of the tumor was measured and the volume of the tumor was calculated. Mice were selected on the basis of the volume of the tumor and administration of drug was begun. Twenty-one days after the day of administration, the size of the tumor was measured and the volume of the tumor was calculated. The inhibition ratio of growth of tumor (I.R.) was calculated as shown below. I.R.(%)={1-(Average Tumor Volume of Treated Mice)/(Average Tumor Volume of Control Mice)}×100
# [2] = Solubility in phosphate buffer (pH 7.0), HPLC of supernatant; assay type: physicochemical
# Protocol: An excess amount of each sample was dissolved in 0.1 ml of phosphate buffer (PH 7.0). The mixture was sonicated and centrifuged. The supernatant was subjected to HPLC and the solubility was measured.
# [3] = 48 h, mouse P388 leukemia cells, 2 days at 37° C., MTT method
# [4] = 40 mg/day, once a day on day 1, day 5 and day 7, perorally
# [5] = aqueous buffer, pH 7.0, read-out: Solubility in Phosphate Buffer (PH 7.0)
# [6] = 40 mg/day, once a day on day 1, day 5 and day 7, intravenously
structure (smiles),measurement,setting,value
"COc1ccc(/C=C\c2cc(OC)c(OC)c(OC)c2)cc1O [Combretastatin A-4, reference compound]",IC50,[1]; [3],0.2 ng/mL
same,in vivo I.R. (inhibition ratio of growth of tumor),Colon 26; [4],4.6%
same,solubility,"[2]; pH 7, aqueous buffer",< 100 µg/mL
"COc1cc(/C=C\c2ccc(Cl)c(N)c2)cc(OC)c1OC [(Z)-1-(3-amino-4-chlorophenyl)-2-(3,4,5-trimethoxyphenyl)ethene]",IC50,"[1]; Mus musculus, P388, 48 h",20 ng/mL
"COc1ccc(/C=C(/C#N)c2cc(OC)c(OC)c(OC)c2)cc1N [(E)-3-(3-amino-4-methoxyphenyl)-2-(3,4,5-trimethoxyphenyl)-prop-2-ene-nitrile]",IC50,[1]; [3],0.2 ng/mL
same,in vivo I.R. (inhibition ratio of growth of tumor),"Colon 26; 10 mg/day, once a day from day 1 to day 10, intravenously",83.4%
same,solubility,[2]; [5],1700 µg/mL
"COc1cc(/C(C#N)=C\c2ccc(C)c(N)c2)cc(OC)c1OC [(E)-3-(3-amino-4-methylphenyl)-2-(3,4,5-trimethoxyphenyl)-prop-2-ene-nitrile]",IC50,[1]; [3],2 ng/mL
same,in vivo I.R. (inhibition ratio of growth of tumor),Colon 26; [4],41.0%
"COc1cc(/C(C#N)=C\c2ccc(Cl)c(N)c2)cc(OC)c1OC [(E)-3-(3-amino-4-chlorophenyl)-2-(3,4,5-trimethoxyphenyl)-prop-2-ene-nitrile]",IC50,[1]; [3],1.8 ng/mL
same,in vivo I.R. (inhibition ratio of growth of tumor),"Colon 26; 80 mg/day, once a day on day 1, day 5 and day 7, perorally",23.7%
"COc1cc(/C=C\c2ccc(C)c(N)c2)cc(OC)c1OC [(Z)-1-(3-amino-4-methylphenyl)-2-(3,4,5-trimethoxyphenyl)ethene]",IC50,"[1]; Mus musculus, P388, 48 h",3.5 ng/mL
same,in vivo I.R. (inhibition ratio of growth of tumor),Colon 26; [6],61.6%
"COc1ccc(/C=C\c2cc(OC)c(OC)c(OC)c2)cc1N [(Z)-1-(3-Amino-4-methoxyphenyl)-2-(3,4,5-trimethoxyphenyl)ethene]",IC50,[1]; [3],0.2 ng/mL
same,in vivo I.R. (inhibition ratio of growth of tumor),Colon 26; [6],69.5%
same,solubility,[2]; [5],34000 µg/mL
